Where a name gives a salt, the structure may show the parent alone.
Molecule `Cc1cccc(C)c1-c1cccc2c1OC(CN)C2` (racemic) (as salt: hydrochloride) [Example 56, (±)-1-[7-(2,6-dimethylphenyl)-2,3-dihydro-1-benzofuran-2-yl]methanamine] has a melting point of over 250 °C.
For `Cc1ccccc1-c1cccc2c1OC(CN)C2` (racemic) (as salt: hydrochloride) [Example 47, (±)-1-[7-(2-methylphenyl)-2,3-dihydro-1-benzofuran-2-yl]methanamine], the melting point was over 200 °C.
With `NCC1Cc2cccc(-c3cc(C(F)(F)F)cc(C(F)(F)F)c3)c2O1` (racemic) (as salt: hydrochloride) [Example 32, (±)-1-{7-[3,5-bis(trifluoromethyl)phenyl]-2,3-dihydro-1-benzofuran-2-yl}methanamine] the melting point was 174 to 175 °C (dec.).
Work on `NCC1Cc2cccc(-c3ccc(F)c(Cl)c3)c2O1` (racemic) (as salt: hydrochloride) [Example 34, (±)-1-[7-(3-chloro-4-fluorophenyl)-2,3-dihydro-1-benzofuran-2-yl]methanamine] yielded a melting point of over 210 °C.
Molecule `NCC1Cc2cccc(-c3ccsc3)c2O1` (racemic) (as salt: hydrochloride) [Example 44, (±)-1-(7-thien-3-yl-2,3-dihydro-1-benzofuran-2-yl)methanamine] has a melting point of over 200 °C.
With `NCC1Cc2c(C(F)(F)F)ccc(Cl)c2O1` (racemic) (as salt: hydrochloride) [Example 14, (±)-[7-chloro-4-(trifluoromethyl)-2,3-dihydro-1-benzofuran-2-yl]methanamine] the melting point was over 250 °C.
`COc1ccc2c(c1)OC(CN)C2` (racemic) (as salt: hydrochloride) [Example 30, (±)-1-(6-methoxy-2,3-dihydro-1-benzofuran-2-yl)methanamine] showed a melting point of over 220 °C.

Compared with `COc1ccc(-c2cccc3c2OC(CN)C3)c(OC)c1` (racemic) (as salt: hydrochloride) [Example 143, (±)-1-[7-(2,4-dimethoxyphenyl)-2,3-dihydro-1-benzofuran-2-yl]methanamine], `NCC1Cc2cccc(-c3ccc(Cl)cc3Cl)c2O1` (racemic) (as salt: hydrochloride) [Example 83, (±)-1-[7-(2,4-dichlorophenyl)-2,3-dihydro-1-benzofuran-2-yl]methanamine] is higher in melting point: 175 to 178 °C for the first, 198 to 200 °C for the second.

Compared with `NCC1Cc2cccc(-c3c(Cl)cccc3Cl)c2O1` (single isomer, unassigned; (-)) (as salt: hydrochloride) [Example 141, (−)-1-[7-(2,6-dichlorophenyl)-2,3-dihydro-1-benzofuran-2-yl]methanamine], `CNCC1Cc2cccc(-c3c(Cl)cccc3Cl)c2O1` (single isomer, unassigned; (-)) (as salt: hydrochloride) [Example 434, (−)-{[7-(2,6-dichlorophenyl)-2,3-dihydro-1-benzofuran-2-yl]methyl}methylamine] is lower in melting point: 207 to 209 °C for the first, 195 to 197 °C for the second.

Compared with `NCC1Cc2cccc(-c3cccc(Cl)c3)c2O1` (racemic) (as salt: hydrochloride) [Example 65, (±)-1-[7-(3-chlorophenyl)-2,3-dihydro-1-benzofuran-2-yl]methanamine], `NCC1Cc2cccc(-c3cccc(F)c3)c2O1` (racemic) (as salt: hydrochloride) [Example 64, (±)-1-[7-(3-fluorophenyl)-2,3-dihydro-1-benzofuran-2-yl]methanamine] is higher in melting point: 150 to 154 °C for the first, 200 to 202 °C for the second.

First: COc1cccc2c1OC(CN)C2 (racemic) (as salt: hydrochloride) [Example 7, (±)-1-(7-methoxy-2,3-dihydro-1-benzofuran-2-yl)methanamine]
Second: CC(C)c1cccc2c1OC(CN)C2 (single isomer, unassigned; (-)) (as salt: hydrochloride) [Example 19, (−)-(7-isopropyl-2,3-dihydro-1-benzofuran-2-yl)methylamine]
The melting point of the first is lower: 168 to 171 °C for the first, 176 to 178 °C for the second.

First: NCC1Cc2cccc(-c3cc(Cl)cc(Cl)c3)c2O1 (racemic) (as salt: hydrochloride) [Example 35, (±)-1-[7-(3,5-dichlorophenyl)-2,3-dihydro-1-benzofuran-2-yl]methanamine]
Second: NCC1Cc2cccc(-c3c(Cl)cccc3Cl)c2O1 (racemic) (as salt: hydrochloride) [Example 140, (±)-1-[7-(2,6-dichlorophenyl)-2,3-dihydro-1-benzofuran-2-yl]methanamine]
The melting point of the first is lower: 165 to 168 °C for the first, 206 to 208 °C for the second.

First: Cc1cccc(-c2cccc3c2OC(CN)C3)c1 (single isomer, unassigned; (-)) (as salt: hydrochloride) [Example 43, (−)-1-[7-(3-methylphenyl)-2,3-dihydro-1-benzofuran-2-yl]methanamine]
Second: NCC1Cc2cccc(-c3cccc(C(F)(F)F)c3)c2O1 (single isomer, unassigned; (-)) (as salt: hydrochloride) [Example 135, (−)-1-{7-[3-(trifluoromethyl)phenyl]-2,3-dihydro-1-benzofuran-2-yl}methanamine]
The melting point of the first is higher: 194 to 196 °C for the first, 184 to 186 °C for the second.

Compared with `CNCC1Cc2cc(Cl)cc(C3CCCCC3)c2O1` (racemic) (as salt: hydrochloride) [Example 12, (±)-N-[(5-chloro-7-cyclohexyl-2,3-dihydro-1-benzofuran-2-yl)methyl]-N-methylamine], `NCC1Cc2cccc(C3CCCC3)c2O1` (single isomer, unassigned; (-)) (as salt: hydrobromid) [Example 9, (−)-(7-cyclopentyl-2,3-dihydro-1-benzofuran-2-yl)methylamine] is higher in melting point: 125 to 128 °C for the first, 208 to 211 °C for the second.

First: Cc1cccc(C)c1-c1cccc2c1CC(CN)O2 (racemic) (as salt: hydrochloride) [Example 125, (±)-1-[4-(2,6-dimethylphenyl)-2,3-dihydro-1-benzofuran-2-yl]methanamine]
Second: NCC1Cc2c(cccc2-c2ccccc2)O1 (single isomer, unassigned; (-)) (as salt: hydrobromid) [Example 3, (−)-1-(4-phenyl-2,3-dihydro-1-benzofuran-2-yl)methanamine]
The melting point of the first is higher: 254 to 256 °C for the first, 227 to 228 °C for the second.

First: NCCC1Cc2cc(F)cc(-c3c(Cl)cccc3Cl)c2O1 (racemic) (as salt: hydrochloride) [Example 553, (±)-{2-[7-(2,6-dichlorophenyl)-5-fluoro-2,3-dihydro-1-benzofuran-2-yl]ethyl}amine]
Second: Cc1ccccc1-c1cc(Cl)cc2c1OC(CN)C2 (racemic) (as salt: salt) [Example 95, (±)-1-[5-chloro-7-(2-methylphenyl)-2,3-dihydro-1-benzofuran-2-yl]methanamine]
The melting point of the first is higher: 212 to 213 °C for the first, 160 to 163 °C for the second.

Compared with `NCC1Cc2cccc(Cc3ccccc3)c2O1` (single isomer, unassigned; (+)) (as salt: hydrochloride) [Example 16, (+)-1-(7-benzyl-2,3-dihydro-1-benzofuran-2-yl)methanamine], `Cc1ccccc1-c1cccc2c1OC(CN)C2` (single isomer, unassigned; (-)) (as salt: hydrochloride) [Example 49, (−)-1-[7-(2-methylphenyl)-2,3-dihydro-1-benzofuran-2-yl]methanamine] is higher in melting point: 128 to 131 °C for the first, 208 to 209 °C for the second.
